Test results from patent publication US9302999B2, “Substituted triazoles as herbicides” (E. I. DU PONT DE NEMOURS AND COMPANY, priority 2012, dated 2016).

Columns and labels:
Type in all cases: in vivo
[1] = test system: woolly cupgrass (Eriochloa villosa); test: Test C pre-/postemergence: woolly cupgrass
In short: (§1)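 Preemergence on seeds in loam/sand, postemergence on 2–18 cm (1–4-leaf) plants in peat-based medium; compounds in non-phytotoxic solvent with surfactant. After 13–15 days in greenhouse, visual rating versus controls, 0 (no effect) to 100 (complete control).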

[2] = test system: barley, spring (spring barley, Hordeum vulgare); test: Test D pre-/postemergence: barley, spring; conditions: Postemergence; for Plant response rating, Barley, Spring: scale 0 to 100
In short: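 Visual control ratings (0–100) after 14–21 days, controlled environment. Preemergence on silt loam; postemergence on 2–18 cm plants.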

[3] = test system: deadnettle (henbit deadnettle, Lamium amplexicaule); test: Test C postemergence: deadnettle
Text: At the same time, plants selected from these crop and weed species and also barley (winter barley, Hordeum vulgare), canarygrass (Phalaris minor), chickweed (common chickweed, Stellaria media) windgrass (Apera spica-venti) and deadnettle (henbit deadnettle, Lamium amplexicaule) were planted in pots containing Redi-Earth® planting medium (Scotts Company, 14111 Scottslawn Road, Marysville, Ohio 43041) comprising spaghnum peat moss, vermiculite, wetting agent and starter nutrients and treated with postemergence applications of test chemicals formulated in the same manner. Plants ranged in height from 2 to 18 cm (1- to 4-leaf stage) for postemergence treatments.
(§2) Treated plants and controls were maintained in a greenhouse for 13 to 15 days, after which time all species were compared to controls and visually evaluated. Plant response ratings, summarized in Table C, are based on a scale of 0 to 100 where 0 is no effect and 100 is complete control. A dash (-) response means no test result.

[4] = test system: windgrass (Apera spica-venti); test: Test D pre-/postemergence: windgrass; conditions: Postemergence; for Plant response rating, Windgrass: scale 0 to 100
Text: (§3) Seeds of plant species selected from bluegrass (annual bluegrass, Poa annua), blackgrass (Alopecurus myosuroides), canarygrass (Phalaris minor), chickweed (common chickweed, Stellaria media), galium (catchweed bedstraw, Galium aparine), bromegrass, downy (downy bromegrass, Bromus tectorum), field poppy (Papaver rhoeas), field violet (Viola arvensis), foxtail, green (green foxtail, Setaria viridis), deadnettle (henbit deadnettle, Lamium amplexicaule), ryegrass, Italian (Italian ryegrass, Lolium multiflorum), kochia (Kochia scoparia), lambsquarters (Chenopodium album), oilseed rape (Brassica napus), pigweed (Amaranthus retroflexus), Russian thistle (Salsola iberica), chamomile (scentless chamomile, Matricaria inodora), speedwell (bird's-eye speedwell, Veronica persica), barley, spring (spring barley, Hordeum vulgare), wheat, spring (spring wheat, Triticum aestivum), buckwheat, wild (wild buckwheat, Polygonum convolvulus), mustard, wild (wild mustard, Sinapis arvensis), oat, wild (wild oat, Avena fatua), radish, wild (wild radish, Raphanus raphanistrum), windgrass (Apera spica-venti), barley, winter (winter barley, Hordeum vulgare), and wheat, winter (winter wheat, Triticum aestivum) were planted into a silt loam soil and treated preemergence with test chemicals formulated in a non-phytotoxic solvent mixture which included a surfactant. At the same time, these same crop and weed species were planted in pots containing the planting medium comprising spaghnum peat moss, vermiculite, wetting agent and starter nutrients and treated with postemergence applications of the test chemicals formulated in the same manner. Plants ranged in height from 2 to 18 cm (1- to 4-leaf stage).
as §2, with “controlled growth environment” for “greenhouse”, “14” for “13”, “21 days” for “15 days,”, “D,” for “C,”

[5] = test system: chamomile (scentless chamomile, Matricaria inodora); test: Test D pre-/postemergence: chamomile; conditions: Postemergence; for Plant response rating, Chamomile: scale 0 to 100
Text: as §3
as §2, with “controlled growth environment” for “greenhouse”, “14” for “13”, “21 days” for “15 days,”, “D,” for “C,”

[6] = test system: bromegrass, downy (downy bromegrass, Bromus tectorum); test: Test C pre-/postemergence: bromegrass, downy
In short: as §1

[7] = test system: oilseed rape (Brassica napus); test: Test D pre-/postemergence: oilseed rape; conditions: Postemergence; for Plant response rating, Oilseed Rape: scale 0 to 100
Text: as §3
as §2, with “controlled growth environment” for “greenhouse”, “14” for “13”, “21 days” for “15 days,”, “D,” for “C,”

[8] = test system: ducksalad (Heteranthera limosa); test: Test C flooded paddy test: ducksalad; conditions: Heteranthera limosa, scale 0 to 100 (0 no effect, 100 complete control), read-out: Plant response rating, Ducksalad
In short: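 Plants were grown to the 2-leaf stage, pots flooded to 3 cm above soil, and test compounds applied directly to the paddy water, with that depth held throughout. After 13 to 15 days in a greenhouse, injury was visually rated against controls on a 0 (no effect) to 100 (complete control) scale.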

[9] = Postemergence, 31 g ai/ha, scale 0 to 100 (0 no effect, 100 complete control)
[10] = Postemergence, 62 g ai/ha, scale 0 to 100 (0 no effect, 100 complete control)
[11] = Postemergence, 125 g ai/ha, scale 0 to 100, 0 no effect, 100 complete control
[12] = Postemergence, 250 g ai/ha, scale 0 to 100
[13] = 31 g ai/ha, scale 0 to 100 (0 no effect, 100 complete control)
[14] = 62 g ai/ha, scale 0 to 100 (0 no effect, 100 complete control)
[15] = 125 g ai/ha, scale 0 to 100, 0 no effect, 100 complete control
[16] = 250 g ai/ha, scale 0 to 100 (0 no effect, 100 complete control)
[17] = Preemergence, 31 g ai/ha, scale of 0 to 100, 0 is no effect, 100 is complete control
[18] = Preemergence, 62 g ai/ha, scale of 0 to 100, 0 is no effect, 100 is complete control
[19] = Preemergence, 125 g ai/ha, scale 0 to 100, 0 no effect, 100 complete control
[20] = Preemergence, 250 g ai/ha, scale 0 to 100, 0 no effect, 100 complete control

Row | Compound | Plant response rating, Cupgrass, Woolly [1, 9] | Plant response rating, Cupgrass, Woolly [1, 10] | Plant response rating, Cupgrass, Woolly [1, 11] | Plant response rating, Cupgrass, Woolly [1, 12] | Plant response rating: Barley, Spring [2, 13] | Plant response rating: Barley, Spring [2, 14] | Plant response rating: Barley, Spring [2, 15] | Plant response rating, Barley, Spring ([2]; 16 g ai/ha) | Plant response rating, Deadnettle [3, 13] | Plant response rating, Deadnettle [3, 14] | Plant response rating, Deadnettle [3, 15] | Plant response rating, Deadnettle ([3]; 250 g ai/ha, scale 0 to 100) | Plant response rating: Windgrass [4, 14] | Plant response rating: Windgrass [4, 15] | Plant response rating, Windgrass ([4]; 16 g ai/ha) | Plant response rating, Windgrass ([4]; 31 g ai/ha) | Plant response rating, Bromegrass, Downy [6, 9] | Plant response rating, Bromegrass, Downy [6, 10] | Plant response rating, Bromegrass, Downy [6, 11] | Plant response rating, Bromegrass, Downy [6, 12] | other results
1 | Cc1nn(-c2ccnc(C(F)(F)F)c2)nc1Cc1ccnc(C(F)(F)F)c1 [Compound 137] | 45 | 50 | 55 | 90 | 15 | 25 | 30 | 10 | 80 | 95 | 95 | 95 | 40 | 50 | 10 | 20 | 10 | 30 | 60 | 85 | Plant response rating: Barley, Spring [2, 16]: 40; Plant response rating: Windgrass [4, 16]: 80; Plant response rating: Chamomile [5, 13]: 10; Plant response rating: Chamomile [5, 14]: 15; Plant response rating: Chamomile [5, 15]: 20; Plant response rating: Chamomile [5, 16]: 40; Plant response rating, Chamomile ([5]; 16 g ai/ha): 0; Plant response rating: Oilseed Rape [7, 13]: 90; Plant response rating: Oilseed Rape [7, 14]: 98; Plant response rating: Oilseed Rape [7, 15]: 100; Plant response rating: Oilseed Rape [7, 16]: 100; Plant response rating, Oilseed Rape ([7]; 16 g ai/ha): 70
2 | Cc1nn(-c2ccc(F)c(F)c2)nc1Oc1ccnc(C(F)(F)F)c1 [Compound 145] | 20 | 25 | 40 | 75 | 10 | 15 | 20 | 10 | 100 | 100 | 100 | 100 | 60 | 80 | 10 | 35 | 5 | 10 | 20 | 25 | Plant response rating, Cupgrass, Woolly [1, 17]: 55; Plant response rating, Cupgrass, Woolly [1, 18]: 90; Plant response rating, Cupgrass, Woolly [1, 19]: 95; Plant response rating, Cupgrass, Woolly [1, 20]: 98; Plant response rating, Barley, Spring ([2]; 8 g ai/ha): 5; Plant response rating, Windgrass ([4]; 8 g ai/ha): 5; Plant response rating: Chamomile [5, 13]: 10; Plant response rating: Chamomile [5, 14]: 10; Plant response rating: Chamomile [5, 15]: 30; Plant response rating, Chamomile ([5]; 8 g ai/ha): 0; Plant response rating, Chamomile ([5]; 16 g ai/ha): 0; Plant response rating, Bromegrass, Downy [6, 17]: 5; Plant response rating, Bromegrass, Downy [6, 18]: 20; Plant response rating, Bromegrass, Downy [6, 19]: 70; Plant response rating, Bromegrass, Downy [6, 20]: 85; Plant response rating: Oilseed Rape [7, 13]: 50; Plant response rating: Oilseed Rape [7, 14]: 70; Plant response rating: Oilseed Rape [7, 15]: 100; Plant response rating, Oilseed Rape ([7]; 8 g ai/ha): 0; Plant response rating, Oilseed Rape ([7]; 16 g ai/ha): 50
3 | Cc1nn(-c2ccc(C(F)(F)F)cc2)nc1Cc1ccnc(C(F)(F)F)c1 [Compound 47, 4-[[5-methyl-2-[4-(trifluoromethyl)phenyl]-2H-1,2,3-triazol-4-yl]methyl]-2-(trifluoromethyl)pyridine] | 55 | 65 | 80 | 90 | – | – | – | – | 95 | 100 | 100 | 100 | – | – | – | – | 10 | 30 | 50 | 65 | Plant response rating, Cupgrass, Woolly [1, 17]: 45; Plant response rating, Cupgrass, Woolly [1, 18]: 80; Plant response rating, Cupgrass, Woolly [1, 19]: 95; Plant response rating, Cupgrass, Woolly [1, 20]: 98; pest or weed control at 62 g/ha ([8]; Flood (flooded paddy test), 62 g ai/ha, visual rating after 13 to 15 days): 90%; pest or weed control at 125 g/ha ([8]; Flood (flooded paddy test), 125 g ai/ha, visual rating after 13 to 15 days): 90%; pest or weed control at 250 g/ha ([8]; Flood (flooded paddy test), 250 g ai/ha, visual rating after 13 to 15 days): 90%; pest or weed control at 31 g/ha ([8]; Flood, 31 g ai/ha): 0%; Plant response rating, Bromegrass, Downy [6, 17]: 15; Plant response rating, Bromegrass, Downy ([6]; Preemergence, 62 g ai/ha, scale 0 to 100, 0 no effect, 100 complete control): 40; Plant response rating, Bromegrass, Downy [6, 19]: 90; Plant response rating, Bromegrass, Downy [6, 20]: 100
